{
  "source": "paper PMC4979471",
  "about": "(Cell Death Discovery, 2015)",
  "assay_in_all_cases": "Kinase selectivity, P33-radiolabeled assay",
  "assay_type_in_all_cases": "biochemical",
  "details_in_all_cases": "10 μM ATP",
  "key": {"BRSK1": {"molecular_target": "T1, BRSK1 (Homo sapiens, UniProt Q8TDC3)", "T1 construct": "purchased Reaction Biology Corp", "T1 sequence (Q8TDC3 1-778)": "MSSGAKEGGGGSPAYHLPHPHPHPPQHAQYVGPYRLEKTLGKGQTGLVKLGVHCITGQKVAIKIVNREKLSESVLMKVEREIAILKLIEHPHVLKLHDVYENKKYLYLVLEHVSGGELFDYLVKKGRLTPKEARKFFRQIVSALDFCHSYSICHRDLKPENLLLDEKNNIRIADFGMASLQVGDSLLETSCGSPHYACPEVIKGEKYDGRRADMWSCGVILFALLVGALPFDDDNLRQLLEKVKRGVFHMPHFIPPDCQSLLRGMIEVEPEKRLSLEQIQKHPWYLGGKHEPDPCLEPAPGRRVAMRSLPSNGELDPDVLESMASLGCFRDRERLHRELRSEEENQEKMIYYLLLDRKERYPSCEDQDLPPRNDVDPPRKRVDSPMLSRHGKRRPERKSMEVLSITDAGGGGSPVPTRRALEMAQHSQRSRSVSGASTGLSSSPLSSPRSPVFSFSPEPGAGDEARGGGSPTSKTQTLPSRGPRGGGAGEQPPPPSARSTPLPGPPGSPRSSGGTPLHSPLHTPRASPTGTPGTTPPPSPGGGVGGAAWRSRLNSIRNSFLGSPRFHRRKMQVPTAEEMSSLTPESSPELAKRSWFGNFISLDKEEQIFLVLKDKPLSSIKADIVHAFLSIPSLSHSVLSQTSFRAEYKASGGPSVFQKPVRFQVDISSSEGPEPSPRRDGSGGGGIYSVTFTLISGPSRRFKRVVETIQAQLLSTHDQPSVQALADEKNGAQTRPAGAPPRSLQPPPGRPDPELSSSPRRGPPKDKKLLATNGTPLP", "outline": "(§1)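 Reactions contained 10 μM ATP and 10 μM test compound, each run in duplicate. Kinase activity is expressed as a percentage of DMSO-treated controls.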"}, "RSK3": {"molecular_target": "T2, RSK3 (Homo sapiens, UniProt Q15349)", "T2 construct": "purchased Reaction Biology Corp", "T2 sequence (Q15349 whole entry)": "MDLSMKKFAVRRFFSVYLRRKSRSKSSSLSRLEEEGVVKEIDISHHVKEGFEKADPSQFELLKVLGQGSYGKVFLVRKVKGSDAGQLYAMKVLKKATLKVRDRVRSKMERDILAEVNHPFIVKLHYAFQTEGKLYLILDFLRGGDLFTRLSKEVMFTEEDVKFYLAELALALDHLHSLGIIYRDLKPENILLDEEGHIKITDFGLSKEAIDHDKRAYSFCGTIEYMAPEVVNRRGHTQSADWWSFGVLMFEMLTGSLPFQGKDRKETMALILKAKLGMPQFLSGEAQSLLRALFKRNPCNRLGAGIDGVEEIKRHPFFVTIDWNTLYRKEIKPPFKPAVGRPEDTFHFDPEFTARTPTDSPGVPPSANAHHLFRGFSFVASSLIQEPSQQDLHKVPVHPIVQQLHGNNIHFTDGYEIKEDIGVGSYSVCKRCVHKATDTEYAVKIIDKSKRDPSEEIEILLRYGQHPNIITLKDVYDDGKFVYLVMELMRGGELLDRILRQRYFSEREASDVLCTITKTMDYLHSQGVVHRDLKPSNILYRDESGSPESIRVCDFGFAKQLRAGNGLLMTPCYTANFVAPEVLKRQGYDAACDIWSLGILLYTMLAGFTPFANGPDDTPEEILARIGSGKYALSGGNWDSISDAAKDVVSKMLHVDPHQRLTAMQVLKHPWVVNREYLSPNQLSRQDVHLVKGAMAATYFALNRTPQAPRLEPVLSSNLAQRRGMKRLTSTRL", "outline": "as §1"}, "IKKe/IKBKE": {"molecular_target": "T3, IKKe/IKBKE (Homo sapiens, UniProt Q14164)", "T3 construct": "purchased Reaction Biology Corp", "T3 sequence (Q14164 1-716)": "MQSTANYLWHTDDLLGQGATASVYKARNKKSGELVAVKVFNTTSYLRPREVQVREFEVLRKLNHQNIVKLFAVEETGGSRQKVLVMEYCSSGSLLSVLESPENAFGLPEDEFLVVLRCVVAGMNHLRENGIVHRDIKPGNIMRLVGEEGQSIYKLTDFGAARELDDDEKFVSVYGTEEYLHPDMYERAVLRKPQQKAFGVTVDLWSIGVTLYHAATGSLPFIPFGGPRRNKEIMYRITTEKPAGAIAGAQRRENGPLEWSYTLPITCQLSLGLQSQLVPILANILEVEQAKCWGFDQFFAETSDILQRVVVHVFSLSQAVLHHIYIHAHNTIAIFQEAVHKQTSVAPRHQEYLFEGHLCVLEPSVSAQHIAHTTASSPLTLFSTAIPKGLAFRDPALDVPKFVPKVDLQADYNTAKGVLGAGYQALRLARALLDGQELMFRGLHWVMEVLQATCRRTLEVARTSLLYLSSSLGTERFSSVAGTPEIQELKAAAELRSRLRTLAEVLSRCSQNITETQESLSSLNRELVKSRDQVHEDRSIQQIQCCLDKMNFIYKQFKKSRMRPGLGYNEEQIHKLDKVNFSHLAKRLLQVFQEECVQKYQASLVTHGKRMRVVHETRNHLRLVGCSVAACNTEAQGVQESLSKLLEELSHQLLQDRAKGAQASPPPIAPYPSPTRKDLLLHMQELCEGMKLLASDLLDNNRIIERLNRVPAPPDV", "outline": "as §1"}, "LYN": {"molecular_target": "T4, LYN (Homo sapiens, UniProt P07948)", "T4 construct": "purchased Reaction Biology Corp", "T4 sequence (P07948 whole entry)": "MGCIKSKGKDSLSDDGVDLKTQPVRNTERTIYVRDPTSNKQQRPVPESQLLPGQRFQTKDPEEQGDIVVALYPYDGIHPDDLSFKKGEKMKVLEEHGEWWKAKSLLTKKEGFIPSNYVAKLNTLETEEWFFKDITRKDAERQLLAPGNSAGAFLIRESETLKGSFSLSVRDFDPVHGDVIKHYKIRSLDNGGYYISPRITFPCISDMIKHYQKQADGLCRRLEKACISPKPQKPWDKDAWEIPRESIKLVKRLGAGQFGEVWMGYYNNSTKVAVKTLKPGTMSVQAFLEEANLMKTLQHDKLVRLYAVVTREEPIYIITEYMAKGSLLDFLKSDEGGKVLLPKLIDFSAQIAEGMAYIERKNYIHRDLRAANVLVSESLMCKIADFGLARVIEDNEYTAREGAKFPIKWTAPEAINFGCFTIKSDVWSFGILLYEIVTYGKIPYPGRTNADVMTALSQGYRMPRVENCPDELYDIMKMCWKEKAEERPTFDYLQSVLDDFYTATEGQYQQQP", "outline": "as §1"}, "FLT1/VEGFR1": {"molecular_target": "T5, FLT1/VEGFR1 (Homo sapiens, UniProt P17948)", "T5 construct": "purchased Reaction Biology Corp", "T5 sequence (P17948 27-1338)": "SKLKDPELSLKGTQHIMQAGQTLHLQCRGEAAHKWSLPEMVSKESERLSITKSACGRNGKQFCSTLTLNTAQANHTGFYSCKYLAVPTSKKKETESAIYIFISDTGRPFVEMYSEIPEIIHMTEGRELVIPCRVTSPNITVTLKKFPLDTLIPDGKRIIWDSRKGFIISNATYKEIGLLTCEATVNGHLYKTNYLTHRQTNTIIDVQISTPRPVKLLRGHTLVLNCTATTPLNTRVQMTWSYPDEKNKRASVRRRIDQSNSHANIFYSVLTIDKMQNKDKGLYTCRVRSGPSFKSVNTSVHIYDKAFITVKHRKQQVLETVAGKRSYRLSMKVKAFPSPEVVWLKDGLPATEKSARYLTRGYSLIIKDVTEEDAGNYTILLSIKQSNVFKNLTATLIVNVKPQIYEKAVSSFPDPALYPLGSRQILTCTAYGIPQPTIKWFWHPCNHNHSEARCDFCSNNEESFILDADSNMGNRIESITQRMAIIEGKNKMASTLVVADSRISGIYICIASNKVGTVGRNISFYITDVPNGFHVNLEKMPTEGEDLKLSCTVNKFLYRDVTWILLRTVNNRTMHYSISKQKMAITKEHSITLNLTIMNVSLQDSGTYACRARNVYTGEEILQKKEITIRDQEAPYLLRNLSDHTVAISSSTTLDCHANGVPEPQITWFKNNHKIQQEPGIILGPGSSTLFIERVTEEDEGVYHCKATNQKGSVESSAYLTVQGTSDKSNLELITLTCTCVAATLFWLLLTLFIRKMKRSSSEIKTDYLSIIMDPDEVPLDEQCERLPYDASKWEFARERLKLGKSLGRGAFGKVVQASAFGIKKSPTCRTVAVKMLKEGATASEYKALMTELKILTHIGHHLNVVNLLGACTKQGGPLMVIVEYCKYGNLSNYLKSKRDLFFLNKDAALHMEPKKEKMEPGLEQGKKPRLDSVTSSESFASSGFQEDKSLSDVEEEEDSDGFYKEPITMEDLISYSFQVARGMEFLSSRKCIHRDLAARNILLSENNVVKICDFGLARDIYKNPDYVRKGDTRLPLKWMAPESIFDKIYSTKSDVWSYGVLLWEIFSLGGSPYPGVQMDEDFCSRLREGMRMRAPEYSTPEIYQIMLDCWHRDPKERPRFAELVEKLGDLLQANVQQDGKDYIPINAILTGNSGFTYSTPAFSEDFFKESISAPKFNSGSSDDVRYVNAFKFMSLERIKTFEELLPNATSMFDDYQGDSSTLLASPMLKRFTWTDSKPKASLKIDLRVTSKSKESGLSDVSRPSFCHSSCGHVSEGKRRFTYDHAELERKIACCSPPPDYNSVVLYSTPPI", "outline": "as §1"}, "EPHA1": {"molecular_target": "T6, EPHA1 (Homo sapiens, UniProt P21709)", "T6 construct": "purchased Reaction Biology Corp", "T6 sequence (P21709 26-976)": "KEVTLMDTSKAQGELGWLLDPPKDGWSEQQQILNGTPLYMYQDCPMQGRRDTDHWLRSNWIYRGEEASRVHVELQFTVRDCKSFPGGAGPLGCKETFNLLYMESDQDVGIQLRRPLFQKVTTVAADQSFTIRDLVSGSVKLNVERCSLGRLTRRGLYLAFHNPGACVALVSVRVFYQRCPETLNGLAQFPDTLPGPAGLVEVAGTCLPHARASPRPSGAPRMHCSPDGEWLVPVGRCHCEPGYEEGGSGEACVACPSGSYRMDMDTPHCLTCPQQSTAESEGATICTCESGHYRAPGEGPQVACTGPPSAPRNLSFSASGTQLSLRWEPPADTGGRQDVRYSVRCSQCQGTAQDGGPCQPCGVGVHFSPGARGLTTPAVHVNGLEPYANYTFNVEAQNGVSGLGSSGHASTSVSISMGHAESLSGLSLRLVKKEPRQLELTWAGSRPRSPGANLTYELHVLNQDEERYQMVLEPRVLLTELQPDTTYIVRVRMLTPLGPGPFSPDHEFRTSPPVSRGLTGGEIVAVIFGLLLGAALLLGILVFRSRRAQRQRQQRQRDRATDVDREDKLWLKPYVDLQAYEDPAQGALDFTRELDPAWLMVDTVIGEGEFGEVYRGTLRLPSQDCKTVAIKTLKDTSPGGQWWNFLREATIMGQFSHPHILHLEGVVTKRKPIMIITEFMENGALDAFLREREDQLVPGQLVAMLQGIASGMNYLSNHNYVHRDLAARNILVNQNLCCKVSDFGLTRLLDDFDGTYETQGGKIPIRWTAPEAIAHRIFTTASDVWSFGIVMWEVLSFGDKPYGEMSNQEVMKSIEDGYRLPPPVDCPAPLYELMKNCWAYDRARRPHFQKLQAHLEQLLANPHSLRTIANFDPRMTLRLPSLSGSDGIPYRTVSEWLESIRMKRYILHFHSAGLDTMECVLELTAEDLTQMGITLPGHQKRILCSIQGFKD", "outline": "as §1"}, "[1]": {"details": "read-out: % Enzyme Activity (relative to DMSO controls) AVG"}, "[2]": {"details": "read-out: % Enzyme Activity (relative to DMSO controls) Data 1"}, "[3]": {"details": "read-out: % Enzyme Activity (relative to DMSO controls) Data 2"}},
  "note": "Like-named read-outs stand apart in the source and are kept apart here.",
  "data": [
    {"smiles": "CC(C)(C)C(=O)N1N=CC[C@H]1c1ccccc1", "note": "[GSK′963]", "values": [
      {"measurement": "remaining activity at 10 µM", "setting": "BRSK1; [1]", "value": 95.2, "unit": "%"},
      {"measurement": "remaining activity at 10 µM", "setting": "BRSK1; [2]", "value": 96.9, "unit": "%"},
      {"measurement": "remaining activity at 10 µM", "setting": "BRSK1; [3]", "value": 93.5, "unit": "%"},
      {"measurement": "remaining activity at 10 µM", "setting": "RSK3; [1]", "value": 101, "unit": "%"},
      {"measurement": "remaining activity at 10 µM", "setting": "RSK3; [2]", "value": 102, "unit": "%"},
      {"measurement": "remaining activity at 10 µM", "setting": "RSK3; [3]", "value": 99.6, "unit": "%"},
      {"measurement": "remaining activity at 10 µM", "setting": "IKKe/IKBKE; [1]", "value": 70, "unit": "%"},
      {"measurement": "remaining activity at 10 µM", "setting": "IKKe/IKBKE; [2]", "value": 68.1, "unit": "%"},
      {"measurement": "remaining activity at 10 µM", "setting": "IKKe/IKBKE; [3]", "value": 71.8, "unit": "%"},
      {"measurement": "remaining activity at 10 µM", "setting": "LYN; [1]", "value": 107, "unit": "%"},
      {"measurement": "remaining activity at 10 µM", "setting": "LYN; [2]", "value": 109, "unit": "%"},
      {"measurement": "remaining activity at 10 µM", "setting": "LYN; [3]", "value": 105, "unit": "%"},
      {"measurement": "remaining activity at 10 µM", "setting": "FLT1/VEGFR1; [1]", "value": 107, "unit": "%"},
      {"measurement": "remaining activity at 10 µM", "setting": "FLT1/VEGFR1; [2]", "value": 106, "unit": "%"},
      {"measurement": "remaining activity at 10 µM", "setting": "FLT1/VEGFR1; [3]", "value": 107, "unit": "%"},
      {"measurement": "remaining activity at 10 µM", "setting": "EPHA1; [1]", "value": 106, "unit": "%"},
      {"measurement": "remaining activity at 10 µM", "setting": "EPHA1; [2]", "value": 107, "unit": "%"},
      {"measurement": "remaining activity at 10 µM", "setting": "EPHA1; [3]", "value": 106, "unit": "%"}
    ]}
  ]
}
